The record followed here is patent publication US11932645B2, “Substituted pyrazolo[1,5-a]pyrimidines and their use in the treatment of medical disorders” (Bial—R&D Investments, S.A., priority 2014, dated 2024).

The assay concerns the target T1, glucocerebrosidase (Gcase) (Homo sapiens, UniProt P04062).
T1 sequence (P04062 40-536): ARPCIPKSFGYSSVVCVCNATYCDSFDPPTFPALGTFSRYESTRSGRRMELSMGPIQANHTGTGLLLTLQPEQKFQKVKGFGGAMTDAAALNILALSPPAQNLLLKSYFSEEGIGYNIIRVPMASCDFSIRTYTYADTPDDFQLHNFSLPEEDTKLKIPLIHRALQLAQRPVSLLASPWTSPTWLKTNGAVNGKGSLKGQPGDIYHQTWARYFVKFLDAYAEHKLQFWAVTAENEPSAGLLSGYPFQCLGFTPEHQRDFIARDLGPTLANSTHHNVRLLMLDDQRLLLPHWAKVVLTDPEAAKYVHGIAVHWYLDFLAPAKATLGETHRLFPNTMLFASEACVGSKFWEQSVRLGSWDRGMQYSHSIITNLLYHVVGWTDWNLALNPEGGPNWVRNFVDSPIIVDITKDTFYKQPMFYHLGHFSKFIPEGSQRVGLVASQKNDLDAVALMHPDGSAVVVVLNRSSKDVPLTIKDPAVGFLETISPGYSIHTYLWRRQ
Nature of the assay: Glucocerebrosidase (Gcase) activation assay, 4-methylumbelliferyl-beta-D-glucopyranoside substrate, with saposin C. Format: biochemical. The conditions noted are these: 10 nM GCase, 100 nM saposin C, pH 4.7. The method, then:
The ability of exemplary compounds to activate glucocerebrosidase (Gcase) was measured.
A 484 μL aliquot of a 1.0 mg/mL solution of phosphatidylserine (PS) (Sigma P7769) in chloroform was evaporated under a stream of nitrogen for 1 hour. The lipid film was dissolved over 4 minutes of vigorous vortexing in 40 mL of 176 mM K2HPO4/50 mM citric acid (pH 4.7) containing 7.5 μL of triton X-100, resulting in a mixed micellar preparation with a composition of 0.32 mM triton and 0.37 mol % PS. 4-Methylumbelliferyl-beta-D-glucopyranoside (ACROS-337025000) was dissolved in the micellar solution to a final concentration of 2 mM for use as the reaction substrate.
Test compounds were diluted to the desired concentrations with dimethylsulfoxide (DMSO) from 10 mM stocks, and 0.41 μL of the DMSO compound mixture was added to 100 μL of micellar solution containing 10 nM GCase and 100 nM saposin C (Enzo ALX-201-262-C050). Pre-incubation was allowed to occur for 30 minutes at room temperature, after which the reaction was initiated by combining 25 μL of substrate solution with 25 μL of compound/GCase/saposin mixture. The reaction proceeded for 15 minutes at room temperature and was stopped by adding 150 μL of 1M glycine, pH 12.5. The endpoint of the reaction was monitored by measuring fluorescence intensity (excitation: 365 nm; emission: 440 nm) on a SpectraMax i3 instrument (Molecular Devices). Test compounds were screened at 1.0 and 0.1 μM final concentration, and subsequent 8-point dose response curves were obtained using 3-fold dilutions from a maximum final concentration of 5 μM.
For experiments in which the test compound was used at a concentration of 1.0 μM, the symbol “+” indicates less than 30% Gcase activation; the symbol “++” indicates Gcase activation in the range of 30% up to 60%; and the symbol “+++” indicates Gcase activation greater than 60%. For experiments in which the test compound was used at a concentration of 0.1 μM, the symbol “*” indicates less than 10% Gcase activation; the symbol “**” indicates Gcase activation in the range of 10% up to 20%; and the symbol “***” indicates greater than 20% Gcase activation.

Molecules are shown by their SMILES.

Regarding `C#CCOc1ccc(NC(=O)c2cnn3c(C)cc(C)nc23)cc1` [III-33], the “Percent Gcase Activation 0.1 μM Test Compound” value is “* (less than 10% Gcase activation)” and the “Percent Gcase Activation 1 μM Test Compound” value was “+ (less than 30% Gcase activation)”.
Regarding `Cc1cc(C)n2ncc(C(=O)Nc3ccc(CCCC(=O)O)cc3)c2n1` [III-34], the “Percent Gcase Activation 0.1 μM Test Compound” value is given as “* (less than 10% Gcase activation)” and the “Percent Gcase Activation 1 μM Test Compound” value was “+ (less than 30% Gcase activation)”.
Turning to `Cc1cc(C)n2ncc(C(=O)Nc3ccc(C(C)O)cc3)c2n1` (centres unmarked) [III-35], the “Percent Gcase Activation 0.1 μM Test Compound” value is “* (less than 10% Gcase activation)” and the “Percent Gcase Activation 1 μM Test Compound” value was “+ (less than 30% Gcase activation)”.
As to `Cc1cc(C)n2ncc(C(=O)Nc3ccc(CCC(=O)O)cc3)c2n1` [III-36], the “Percent Gcase Activation 0.1 μM Test Compound” value is listed as “* (less than 10% Gcase activation)” and the “Percent Gcase Activation 1 μM Test Compound” value was “+ (less than 30% Gcase activation)”.
For the molecule `Cc1cc(C)n2ncc(CNc3ccc(-c4cocn4)cc3)c2n1` [III-37], the “Percent Gcase Activation 0.1 μM Test Compound” value is on record as “* (less than 10% Gcase activation)” and the “Percent Gcase Activation 1 μM Test Compound” value is on record as “+ (less than 30% Gcase activation)”.
Consider `Cc1cc(C)n2ncc(C(=O)Nc3ccc(N=[N+]=[N-])cc3)c2n1` [III-38], for which the “Percent Gcase Activation 0.1 μM Test Compound” value is listed as “* (less than 10% Gcase activation)” and the “Percent Gcase Activation 1 μM Test Compound” value is on record as “++ (Gcase activation in the range of 30% up to 60%)”.
On to `Cc1cc(C)n2ncc(C(=O)Nc3ccc(-c4cccs4)cc3)c2n1` [III-39], for which the “Percent Gcase Activation 0.1 μM Test Compound” value is listed as “*** (greater than 20% Gcase activation)” and the “Percent Gcase Activation 1 μM Test Compound” value is reported as “+++ (Gcase activation greater than 60%)”.
For `Cc1cc(C)n2ncc(C(=O)Nc3ccc4[nH]c(C)cc4c3)c2n1` [III-40], the “Percent Gcase Activation 0.1 μM Test Compound” value is on record as “* (less than 10% Gcase activation)” and the “Percent Gcase Activation 1 μM Test Compound” value is “+ (less than 30% Gcase activation)”.
For `Cc1cc(C)n2ncc(C(=O)Nc3ccc4[nH]ncc4c3)c2n1` [III-41], the “Percent Gcase Activation 0.1 μM Test Compound” value was “* (less than 10% Gcase activation)” and the “Percent Gcase Activation 1 μM Test Compound” value was “+ (less than 30% Gcase activation)”.
For `Cc1cc(C)n2ncc(C(=O)Nc3ccc4cn[nH]c4c3)c2n1` [III-42], the “Percent Gcase Activation 0.1 μM Test Compound” value is “* (less than 10% Gcase activation)” and the “Percent Gcase Activation 1 μM Test Compound” value is reported as “+ (less than 30% Gcase activation)”.
For the molecule `Cc1cc(C)n2ncc(C(=O)Nc3ccc4nc(C)oc4c3)c2n1` [III-44], the “Percent Gcase Activation 0.1 μM Test Compound” value is listed as “* (less than 10% Gcase activation)” and the “Percent Gcase Activation 1 μM Test Compound” value is reported as “+ (less than 30% Gcase activation)”.
The like results for `Cc1cc(C)n2ncc(C(=O)Nc3ccc4nc(C)[nH]c4c3)c2n1` [III-45] were, in that order, “* (less than 10% Gcase activation)” and “+ (less than 30% Gcase activation)”.
The corresponding values for `Cc1cc(C)n2ncc(C(=O)Nc3ccc4c(c3)CCNC4)c2n1` [III-46] are “* (less than 10% Gcase activation)” and “+ (less than 30% Gcase activation)”.
For the molecule `Cc1cc(C)n2ncc(C(=O)Nc3ccc4oncc4c3)c2n1` [III-47], the “Percent Gcase Activation 0.1 μM Test Compound” value was “* (less than 10% Gcase activation)” and the “Percent Gcase Activation 1 μM Test Compound” value is recorded as “+ (less than 30% Gcase activation)”.
The corresponding values for `Cc1cc(C)n2ncc(C(=O)Nc3ccc4[nH]c(-c5ccco5)nc4c3)c2n1` [III-49] are “* (less than 10% Gcase activation)” and “+ (less than 30% Gcase activation)”.
In the case of `Cc1cc(C)n2ncc(C(=O)Nc3ccc4nc(C)sc4c3)c2n1` [III-50], the “Percent Gcase Activation 0.1 μM Test Compound” value was “* (less than 10% Gcase activation)” and the “Percent Gcase Activation 1 μM Test Compound” value was “++ (Gcase activation in the range of 30% up to 60%)”.
With `Cc1cc(C)n2ncc(C(=O)Nc3ccc(Cl)c(COc4cccnc4)c3)c2n1` [III-51], the “Percent Gcase Activation 0.1 μM Test Compound” value is listed as “** (Gcase activation in the range of 10% up to 20%)” and the “Percent Gcase Activation 1 μM Test Compound” value was “+++ (Gcase activation greater than 60%)”.
As for `Cc1cc(C)n2ncc(C(=O)Nc3ccc(C)c(-c4ncco4)c3)c2n1` [III-52], the “Percent Gcase Activation 0.1 μM Test Compound” value is recorded as “** (Gcase activation in the range of 10% up to 20%)” and the “Percent Gcase Activation 1 μM Test Compound” value is given as “+++ (Gcase activation greater than 60%)”.
For `Cc1cc(C)n2ncc(C(=O)Nc3ccc(Cl)c(-c4cnco4)c3)c2n1` [III-53], the “Percent Gcase Activation 0.1 μM Test Compound” value is reported as “** (Gcase activation in the range of 10% up to 20%)” and the “Percent Gcase Activation 1 μM Test Compound” value is given as “+++ (Gcase activation greater than 60%)”.
Take `Cc1cc(C)n2ncc(C(=O)Nc3ccc(-c4cnn(C)c4)cc3)c2n1` [III-54]: the “Percent Gcase Activation 0.1 μM Test Compound” value is reported as “* (less than 10% Gcase activation)” and the “Percent Gcase Activation 1 μM Test Compound” value is “++ (Gcase activation in the range of 30% up to 60%)”.
As for `Cc1cc(C)n2ncc(C(=O)Nc3ccc(-c4ccco4)cc3)c2n1` [III-55], the “Percent Gcase Activation 0.1 μM Test Compound” value was “*** (greater than 20% Gcase activation)” and the “Percent Gcase Activation 1 μM Test Compound” value is listed as “+++ (Gcase activation greater than 60%)”.
For the molecule `Cc1cc(C)n2ncc(C(=O)Nc3ccc(-c4ccncc4)cc3)c2n1` [III-56], the “Percent Gcase Activation 0.1 μM Test Compound” value is recorded as “* (less than 10% Gcase activation)” and the “Percent Gcase Activation 1 μM Test Compound” value is “+ (less than 30% Gcase activation)”.
As for `Cc1cc(C)n2ncc(C(=O)NC3CCCc4ccccc43)c2n1` (centres unmarked) [III-58], the “Percent Gcase Activation 0.1 μM Test Compound” value is “*** (greater than 20% Gcase activation)” and the “Percent Gcase Activation 1 μM Test Compound” value was “+++ (Gcase activation greater than 60%)”.
With `CCCCCO[C@H]1CC[C@H](NC(=O)c2cnn3c(C)cc(C)nc23)CC1` [III-59], the “Percent Gcase Activation 0.1 μM Test Compound” value is “** (Gcase activation in the range of 10% up to 20%)” and the “Percent Gcase Activation 1 μM Test Compound” value is given as “+++ (Gcase activation greater than 60%)”.
The like results for `Cc1cc(C)n2ncc(C(=O)N[C@@H](C)c3ccccc3F)c2n1` [III-60] were, in that order, “* (less than 10% Gcase activation)” and “+++ (Gcase activation greater than 60%)”.
Consider `COc1ccccc1[C@H](C)NC(=O)c1cnn2c(C)cc(C)nc12` [III-61], for which the “Percent Gcase Activation 0.1 μM Test Compound” value is recorded as “** (Gcase activation in the range of 10% up to 20%)” and the “Percent Gcase Activation 1 μM Test Compound” value is given as “+++ (Gcase activation greater than 60%)”.
As for `COc1ccccc1[C@@H](C)NC(=O)c1cnn2c(C)cc(C)nc12` [III-62], the “Percent Gcase Activation 0.1 μM Test Compound” value is “* (less than 10% Gcase activation)” and the “Percent Gcase Activation 1 μM Test Compound” value is reported as “+++ (Gcase activation greater than 60%)”.
The like results for `Cc1cc(C)n2ncc(C(=O)N[C@@H](C)c3cccc(Cl)c3)c2n1` [III-63] were, in that order, “** (Gcase activation in the range of 10% up to 20%)” and “+++ (Gcase activation greater than 60%)”.
On to `Cc1cc(C)n2ncc(C(=O)N[C@H](C)c3ccc(Cl)cc3)c2n1` [III-64], for which the “Percent Gcase Activation 0.1 μM Test Compound” value is “** (Gcase activation in the range of 10% up to 20%)” and the “Percent Gcase Activation 1 μM Test Compound” value is “+++ (Gcase activation greater than 60%)”.
The corresponding values for `Cc1cc(C)n2ncc(C(=O)N[C@H](C)c3ccc(F)cc3)c2n1` [III-65] are “* (less than 10% Gcase activation)” and “++ (Gcase activation in the range of 30% up to 60%)”.
Turning to `Cc1cc(C)n2ncc(C(=O)NC(C)C3CCC(F)(F)CC3)c2n1` (centres unmarked) [III-66], the “Percent Gcase Activation 0.1 μM Test Compound” value is on record as “* (less than 10% Gcase activation)” and the “Percent Gcase Activation 1 μM Test Compound” value is “+ (less than 30% Gcase activation)”.
